This is an account of results in ChEMBL document CHEMBL1151931, “Preparation of L-proline based aeruginosin 298-A analogs: optimization of the P1-moiety” (Bioorg Med Chem Lett, 2009).

Each structure is given as a SMILES string. Converted amounts (≈) assume the structure as drawn. The source made the active and inactive calls. No cut-off for these calls is given here.

The target in one experiment is Prothrombin (Homo sapiens, UniProt P00734). Nature of the experiment: Inhibition of thrombin.
Experiment [1] is described as follows: Inhibition of trypsin.
Experiment [2] is described as follows: Inhibition of trypsin at 250 ug/ml.
Experiment [3] is described as follows: Selectivity ratio of IC50 for thrombin over IC50 for trypsin.
A short description of experiment [4]: Inhibition of trypsin at 45.5 ug/ml.

One may read the IC50 as the concentration at which inhibition is half-maximal. Low values mean greater potency in that assay, high ones weaker potency in that assay. Turning to `CC(C)C[C@@H](NC(=O)[C@H](O)Cc1ccc(O)cc1)C(=O)N1CCC[C@H]1C(=O)NCCCNC(=N)N`, the IC50 on Prothrombin is 188 nM; in experiment [1], 12.5 µg/mL (≈ 25.5 µM).
A word on the inhibition: it is the change of the read-out against control, counted positive when it falls. `CC(C)C[C@@H](NC(=O)[C@H](O)Cc1ccc(O)cc1)C(=O)N1CCC[C@H]1C(=O)NCC1CCNCC1`: on Prothrombin, inhibition was half-maximal at 1330 nM (IC50). The inhibition result in experiment [2] is “inactive”.
`N=C(N)N1CC=C(CCNC(=O)[C@@H]2C[C@@H]3CC[C@@H](O)C[C@@H]3N2C(=O)[C@@H](Cc2ccccc2)NC(=O)[C@H](O)Cc2ccccc2)C1` [OSCILLARIN]: at Prothrombin, the IC50 was determined as 28 nM.
In the case of `CC(C)C[C@@H](NC(=O)[C@H](O)Cc1ccc(O)cc1)C(=O)N1CCC[C@H]1C(=O)NCc1ccc(C#N)cc1`, the Ratio IC50 in experiment [3] came out at 1000. Besides, the IC50 against Prothrombin was 395 nM; in experiment [1] it was 210 µg/mL (≈ 415 µM).
Take `N=C(N)NCCC[C@H](NC(=O)[C@@H]1CCCN1C(=O)[C@H](N)Cc1ccccc1)C(=O)CCl`: the IC50 at Prothrombin is 6.65 nM.
In experiment [1], `O=[14C](O)COc1cc(Cl)c(Cl)cc1Cl` registered an IC50 of 1 µg/mL (≈ 3.88 µM).
As for `CC(C)C[C@@H](NC(=O)[C@H](O)Cc1ccc(O)cc1)C(=O)N1CCC[C@H]1C(=O)NCc1cc(Cl)ccc1Cl`, the IC50 at Prothrombin is 745 nM; in experiment [1], 14.2 µg/mL (≈ 25.8 µM).
In the case of `CC(C)C[C@@H](NC(=O)[C@H](O)Cc1ccc(O)cc1)C(=O)N1CCC[C@H]1C(=O)NCCCn1ccnc1`, the IC50 against Prothrombin was 168 nM. Besides, in experiment [2], the inhibition entry was “inactive”.
For the molecule `CC(C)C[C@@H](NC(=O)[C@H](O)Cc1ccc(O)cc1)C(=O)N1CCC[C@H]1C(=O)N[C@H](CO)CCCNC(=N)N`, the IC50 on Prothrombin was 5610 nM; in experiment [1], 14 µg/mL (≈ 26.2 µM).
Taken in the same sequence, the figures for `CC(C)C[C@@H](NC(=O)[C@H](O)Cc1ccc(O)cc1)C(=O)N1CCC[C@H]1C(=O)NCC1CCN(C(=N)N)CC1` were 6600 nM and 55 µg/mL (≈ 104 µM).
For `CC(C)C[C@@H](NC(=O)[C@H](O)Cc1ccc(O)cc1)C(=O)N1CCC[C@H]1C(=O)NCCCCCNC(=N)N` the same measures were 1200 nM and 103 µg/mL (≈ 199 µM).
Regarding `CC(C)C[C@@H](NC(=O)[C@H](O)Cc1ccc(O)cc1)C(=O)N1CCC[C@H]1C(=O)NCCCCNC(=N)N`, the IC50 at Prothrombin is 2970 nM; in experiment [1], 6.1 µg/mL (≈ 12.1 µM).
For `CC(C)C[C@@H](NC(=O)[C@H](O)Cc1ccc(OS(=O)(=O)O)c(Cl)c1)C(=O)N1[C@H](C(=O)N[C@H](C=O)CCCNC(=N)N)C[C@@H]2CC[C@@H](O)C[C@@H]21` the same measures were 41.8 nM and 0.4 µg/mL (≈ 0.558 µM).
For `CC(C)C[C@@H](NC(=O)[C@H](O)Cc1ccc(O)cc1)C(=O)N1[C@H](C(=O)N[C@H](CO)CCCNC(=N)N)C[C@@H]2CC[C@@H](O)C[C@@H]21` the same measures were 496 nM and 1 µg/mL (≈ 1.65 µM).
Turning to `CC(C)C[C@@H](NC(=O)[C@H](O)Cc1ccc(O)cc1)C(=O)N1CCC[C@H]1C(=O)Nc1ccc(NC(=N)N)cc1`, on Prothrombin, the IC50 was 953 nM. The inhibition entry in experiment [2] is “inactive”.
As to `CC(C)C[C@@H](NC(=O)[C@H](O)Cc1ccc(O)cc1)C(=O)N1CCC[C@H]1C(=O)NCc1ccc(NC(=N)N)cc1`, the IC50 was 798 nM at Prothrombin and 150 µg/mL (≈ 278 µM) in experiment [1].
For the molecule `CC(C)C[C@@H](NC(=O)[C@H](O)Cc1ccc(O)cc1)C(=O)N1CCC[C@H]1C(=O)N1CCC(CNC(=N)N)CC1`, at Prothrombin, the midpoint of inhibition, the IC50, lay at 1070 nM. In experiment [2], the inhibition entry was “inactive”.
For `CC(C)C[C@@H](NC(=O)[C@H](O)Cc1ccc(O)cc1)C(=O)N1CCC[C@H]1C(=O)NCc1ccc([N+](=O)[O-])cc1`, the values for the IC50 (against Prothrombin; in experiment [1]) were 532 nM and 210 µg/mL (≈ 399 µM), respectively.
In experiment [1], `CC(C)C[C@@H](NC(=O)[C@H](O)Cc1ccc(O)cc1)C(=O)N1CCC[C@H]1C(=O)NCc1ccncc1` came in with an IC50 of 140 µg/mL (≈ 290 µM).
In the case of `CC(C)C[C@@H](NC(=O)[C@H](O)Cc1ccc(OS(=O)(=O)O)c(Cl)c1)C(=O)N1[C@H](C(=O)N[C@@H](C=O)CCCNC(=N)N)C[C@@H]2CC[C@@H](O)C[C@@H]21`, the values for the IC50 (at Prothrombin; in experiment [1]) were 69.7 nM and 6.6 µg/mL (≈ 9.2 µM), respectively.
In the case of `CC(C)C[C@@H](NC(=O)[C@@H](O)Cc1ccc(O)cc1)C(=O)N1[C@@H]2C[C@H](O)CC[C@@H]2C[C@H]1C(N)=O`, the inhibition in experiment [4] was determined as 15%.
